Measurements published in publication PMC4914440 (Pharmacological research, 2016).
Like-named read-outs stand apart in the source and are kept apart here.

Legend:
5-HT2A receptor [1] = target: T1, 5-HT2A receptor (Homo sapiens, UniProt P28223); assay: Intracellular calcium assay of Gq signaling, HEK293 cells; format: cell-based; settings: for agonist efficacy class: intracellular calcium
h5-HT2C = target: T2, h5-HT2C (Homo sapiens, UniProt P28335); assay: Radioligand displacement by a fixed drug concentration, [3H]mesulergine
T2 sequence (P28335 33-458): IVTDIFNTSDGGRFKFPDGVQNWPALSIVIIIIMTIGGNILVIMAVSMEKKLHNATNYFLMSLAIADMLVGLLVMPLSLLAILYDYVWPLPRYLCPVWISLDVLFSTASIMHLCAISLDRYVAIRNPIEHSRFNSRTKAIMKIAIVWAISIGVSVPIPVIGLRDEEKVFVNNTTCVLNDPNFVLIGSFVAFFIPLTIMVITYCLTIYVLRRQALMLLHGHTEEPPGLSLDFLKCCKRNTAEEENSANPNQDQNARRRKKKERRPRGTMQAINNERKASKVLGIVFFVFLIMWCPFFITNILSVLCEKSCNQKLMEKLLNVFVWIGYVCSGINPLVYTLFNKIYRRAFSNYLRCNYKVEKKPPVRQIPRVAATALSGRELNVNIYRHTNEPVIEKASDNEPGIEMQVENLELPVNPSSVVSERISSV

h5-HT2A = h5-HT2A (Homo sapiens, UniProt P28223)
r5-HT6 = r5-HT6 (Rattus norvegicus, UniProt P31388); assay: Radioligand displacement by a fixed drug concentration, [3H]LSD
α1β2γ2 GABAA receptors = α1β2γ2 GABAA receptors (Rattus norvegicus, UniProt P18508+P62813+P63138); assay: Whole cell electrophysiology, GABA-activated currents, HEK293 cells; format: cell-based; settings: 30 μM; for reduction of GABA-activated currents: EC30 GABA (5 μM)
[2] = cited from earlier work
5-HT2A receptor [3] = target: T1, 5-HT2A receptor; settings: cloned human 5-HT2A receptor; cited from earlier work
untransfected CHO cells = assay: Intracellular calcium assay, control cells; format: cell-based; settings: data not shown
M3 muscarinic receptor = M3 muscarinic receptor (Homo sapiens, UniProt P20309); assay: Intracellular calcium assay, untransfected HEK293 cells with endogenous receptor; format: cell-based
5-HT6 receptor [4] = target: T3, 5-HT6 receptor (Rattus norvegicus, UniProt P31388); assay: cAMP-Glo assay of Gs signaling, HeLa cells; format: cell-based
untransfected HeLa cells = assay: cAMP-Glo assay, control cells; format: cell-based, human; settings: efavirenz 30 μM, clozapine 30 μM, 5-HT 1 μM
5-HT6 receptor [5] = target: T3, 5-HT6 receptor; assay: Competition radioligand binding, concentration-response
[6] = tested on: endogenous β-adrenergic receptor; assay: cAMP-Glo assay, untransfected HeLa cells stimulated with; format: cell-based, human

α1β2γ2 GABAA receptors, sequence (P62813 28-455): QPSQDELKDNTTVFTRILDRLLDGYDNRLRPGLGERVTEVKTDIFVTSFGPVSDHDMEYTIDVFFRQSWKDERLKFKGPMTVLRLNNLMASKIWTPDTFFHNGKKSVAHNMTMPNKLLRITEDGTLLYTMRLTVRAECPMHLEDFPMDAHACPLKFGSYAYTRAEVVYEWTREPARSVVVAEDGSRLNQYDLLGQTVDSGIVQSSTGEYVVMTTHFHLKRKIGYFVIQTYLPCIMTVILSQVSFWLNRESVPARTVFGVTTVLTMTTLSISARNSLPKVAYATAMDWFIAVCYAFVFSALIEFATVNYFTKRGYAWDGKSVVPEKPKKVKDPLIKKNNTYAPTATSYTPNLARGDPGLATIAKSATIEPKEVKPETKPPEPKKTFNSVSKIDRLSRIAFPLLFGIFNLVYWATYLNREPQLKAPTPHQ
α1β2γ2 GABAA receptors, sequence (P63138 26-474): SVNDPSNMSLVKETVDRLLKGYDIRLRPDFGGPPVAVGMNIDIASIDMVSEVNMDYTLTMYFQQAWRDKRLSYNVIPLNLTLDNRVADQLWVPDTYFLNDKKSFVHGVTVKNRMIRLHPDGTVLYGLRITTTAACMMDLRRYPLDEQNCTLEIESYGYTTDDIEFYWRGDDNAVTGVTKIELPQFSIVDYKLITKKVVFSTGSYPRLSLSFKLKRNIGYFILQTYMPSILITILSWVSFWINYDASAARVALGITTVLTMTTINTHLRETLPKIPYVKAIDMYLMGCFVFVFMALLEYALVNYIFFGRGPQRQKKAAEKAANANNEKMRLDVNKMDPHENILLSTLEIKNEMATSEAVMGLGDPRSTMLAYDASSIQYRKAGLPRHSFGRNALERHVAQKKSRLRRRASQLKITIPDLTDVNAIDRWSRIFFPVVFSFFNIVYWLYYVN
α1β2γ2 GABAA receptors, sequence (P18508 39-466): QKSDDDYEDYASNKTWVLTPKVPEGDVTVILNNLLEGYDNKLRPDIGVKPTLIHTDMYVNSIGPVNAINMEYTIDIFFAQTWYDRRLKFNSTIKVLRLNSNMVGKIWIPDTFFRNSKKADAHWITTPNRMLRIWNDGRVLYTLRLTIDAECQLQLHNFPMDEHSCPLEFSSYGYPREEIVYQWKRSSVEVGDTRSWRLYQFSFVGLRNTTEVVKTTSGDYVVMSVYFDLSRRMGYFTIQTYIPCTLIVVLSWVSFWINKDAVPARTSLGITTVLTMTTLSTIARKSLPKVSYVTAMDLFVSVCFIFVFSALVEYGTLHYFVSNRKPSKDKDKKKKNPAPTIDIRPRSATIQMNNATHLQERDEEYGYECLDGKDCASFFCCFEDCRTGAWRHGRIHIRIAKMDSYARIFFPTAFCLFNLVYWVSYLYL
r5-HT6, sequence (P31388 whole entry): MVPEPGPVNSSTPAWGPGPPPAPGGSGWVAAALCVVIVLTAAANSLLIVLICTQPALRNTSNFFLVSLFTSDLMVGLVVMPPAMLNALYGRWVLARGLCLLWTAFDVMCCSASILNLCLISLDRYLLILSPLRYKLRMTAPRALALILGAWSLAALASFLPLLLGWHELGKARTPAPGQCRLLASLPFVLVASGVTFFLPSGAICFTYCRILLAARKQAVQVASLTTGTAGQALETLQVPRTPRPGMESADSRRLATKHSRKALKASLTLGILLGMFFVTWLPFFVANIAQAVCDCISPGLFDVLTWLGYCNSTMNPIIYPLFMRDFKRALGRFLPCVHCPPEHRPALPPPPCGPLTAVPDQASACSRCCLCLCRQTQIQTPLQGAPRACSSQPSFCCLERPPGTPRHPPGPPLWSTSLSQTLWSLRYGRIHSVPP
T3 sequence (P31388 whole entry): as above
T1 sequence (P28223 whole entry): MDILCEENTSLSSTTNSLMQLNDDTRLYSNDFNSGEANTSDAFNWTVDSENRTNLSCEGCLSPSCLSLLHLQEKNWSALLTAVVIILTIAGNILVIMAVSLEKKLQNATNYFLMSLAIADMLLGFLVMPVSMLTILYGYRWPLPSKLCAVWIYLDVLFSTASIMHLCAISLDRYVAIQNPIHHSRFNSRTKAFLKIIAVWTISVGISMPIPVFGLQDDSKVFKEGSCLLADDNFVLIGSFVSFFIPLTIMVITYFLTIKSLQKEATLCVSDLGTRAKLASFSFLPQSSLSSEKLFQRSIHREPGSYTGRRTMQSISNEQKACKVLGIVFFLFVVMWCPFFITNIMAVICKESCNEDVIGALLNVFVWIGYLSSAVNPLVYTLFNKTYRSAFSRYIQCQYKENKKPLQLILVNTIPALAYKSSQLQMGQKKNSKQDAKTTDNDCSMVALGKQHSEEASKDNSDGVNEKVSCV
h5-HT2A, sequence (P28223 whole entry): as above
M3 muscarinic receptor, sequence (P20309 whole entry): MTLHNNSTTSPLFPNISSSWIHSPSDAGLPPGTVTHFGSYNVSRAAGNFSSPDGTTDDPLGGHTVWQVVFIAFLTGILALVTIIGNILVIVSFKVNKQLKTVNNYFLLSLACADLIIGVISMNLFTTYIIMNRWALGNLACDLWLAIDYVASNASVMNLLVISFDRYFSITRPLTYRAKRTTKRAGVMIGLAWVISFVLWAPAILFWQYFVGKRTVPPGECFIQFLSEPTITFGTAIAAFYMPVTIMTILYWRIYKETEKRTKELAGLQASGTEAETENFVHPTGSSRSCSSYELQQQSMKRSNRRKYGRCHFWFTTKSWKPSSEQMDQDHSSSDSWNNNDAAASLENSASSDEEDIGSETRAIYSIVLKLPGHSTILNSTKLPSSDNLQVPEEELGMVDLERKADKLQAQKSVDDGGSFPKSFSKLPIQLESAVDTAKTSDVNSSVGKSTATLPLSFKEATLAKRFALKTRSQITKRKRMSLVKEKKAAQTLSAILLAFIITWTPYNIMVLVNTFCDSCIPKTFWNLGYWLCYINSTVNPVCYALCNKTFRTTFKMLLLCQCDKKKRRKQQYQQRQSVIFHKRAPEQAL

## COc1cc(CC(C)N)c(OC)cc1I (racemic) [(±)-DOI]
5-HT2A receptor [1]
  agonist efficacy class: partial agonists

## Nc1nc(=O)n([C@@H]2CS[C@H](CO)O2)cc1F [FTC]
h5-HT2C; 10 μM ARV drug, data not shown
  interaction (radioligand displacement): no significant interactions
h5-HT2C; 60 μM ARV drug
  interaction (radioligand displacement): only NVP displayed a significant, albeit comparatively weak interaction, with the 5-HT6 receptor
h5-HT2A; 10 μM ARV drug, data not shown
  interaction (radioligand displacement): no significant interactions
h5-HT2A; 60 μM ARV drug
  interaction (radioligand displacement): only NVP displayed a significant, albeit comparatively weak interaction, with the 5-HT6 receptor
r5-HT6; 10 μM ARV drug, data not shown
  interaction (radioligand displacement): no significant interactions
r5-HT6; 60 μM ARV drug
  interaction (radioligand displacement): only NVP displayed a significant, albeit comparatively weak interaction, with the 5-HT6 receptor
α1β2γ2 GABAA receptors
  reduction of GABA-activated currents: 36–50 % of control

## CCN(CC)C(=O)[C@@H]1C=C2c3cccc4[nH]cc(c34)C[C@H]2N(C)C1 [LSD, Lysergic acid diethylamide]
5-HT2A receptor [1]
  agonist efficacy class: partial agonists
[2]
  substitution when efavirenz was the discriminative stimulus: partially substituted for efavirenz

## COc1cccc([C@H](O)C2CCN(CCc3ccc(F)cc3)CC2)c1OC [MDL100,907]
[2]
  effect of pretreatment on efavirenz substitution for LSD: this substitution was blocked by pretreatment

## Cc1ccnc2c1NC(=O)c1cccnc1N2C1CC1 [NVP]
h5-HT2C; 10 μM ARV drug, data not shown
  interaction (radioligand displacement): no significant interactions
h5-HT2C; 60 μM ARV drug
  interaction (radioligand displacement): only NVP displayed a significant, albeit comparatively weak interaction, with the 5-HT6 receptor
r5-HT6; 10 μM ARV drug, data not shown
  interaction (radioligand displacement): no significant interactions
r5-HT6; 60 μM ARV drug
  interaction (radioligand displacement): significant, albeit comparatively weak interaction
r5-HT6; 5-HT6 receptor, estimated
  affinity lower than for efavirenz: approximately 30 fold
α1β2γ2 GABAA receptors; co-application with GABA
  potentiation of GABA-activated currents: 8%

## Cc1cn([C@H]2C[C@H](N=[N+]=[N-])[C@@H](CO)O2)c(=O)[nH]c1=O [ZDV]
h5-HT2C; 10 μM ARV drug, data not shown
  interaction (radioligand displacement): no significant interactions
h5-HT2C; 60 μM ARV drug
  interaction (radioligand displacement): only NVP displayed a significant, albeit comparatively weak interaction, with the 5-HT6 receptor
r5-HT6; 10 μM ARV drug, data not shown
  interaction (radioligand displacement): no significant interactions
r5-HT6; 60 μM ARV drug
  interaction (radioligand displacement): only NVP displayed a significant, albeit comparatively weak interaction, with the 5-HT6 receptor
α1β2γ2 GABAA receptors
  reduction of GABA-activated currents: 36–50 % of control

## CN1CN(c2ccccc2)C2(CCN(CCCC(=O)c3ccc(F)cc3)CC2)C1=O [[^3H]MSP, [3H]methylspiperone]
5-HT2A receptor [3]
  Kd: 0.246 nM

## CC(=O)OCC[N+](C)(C)C [acetylcholine]
Untransfected CHO cells
  Gq-mediated response: No Gq-mediated response
M3 muscarinic receptor
  receptor activation: activated

## C[N+](C)(C)CCOC(N)=O [carbachol]
Untransfected CHO cells
  Gq-mediated response: No Gq-mediated response

## CN1CCN(C2=Nc3cc(Cl)ccc3Nc3ccccc32)CC1 [clozapine]
5-HT6 receptor [4]; 30 μM
  effect on 5-HT agonist effect: completely overcame the agonist effects of 5-HT but also reduced cAMP levels to below basal
  effect on basal cAMP: significantly reduced basal levels of cAMP
Untransfected HeLa cells
  change in cAMP levels: no significant changes in cAMP levels

## CN1[C@@H]2C[C@@H](OC(=O)[C@H](CO)c3ccccc3)C[C@H]1[C@@H]1O[C@@H]12 [scopolamine]
M3 muscarinic receptor
  block of acetylcholine response: blocked

## NCCc1c[nH]c2ccc(O)cc12 [serotonin, 5-Hydroxytryptamine]
5-HT6 receptor [4]
  EC50: 12.7 ± 6.2 nM
5-HT6 receptor [4]; increase in cAMP
  pseudo Hill slope: 1.02 ± 0.35
5-HT6 receptor [5]
  Ki: 105 ± 8 nM
5-HT2A receptor [1]; across serum conditions
  pseudo Hill slope range: 0.55–0.70
Untransfected HeLa cells
  change in cAMP levels: no significant changes in cAMP levels

## CC(C)(C)NC[C@H](O)COc1nsnc1N1CCOCC1 [timolol]
[6]
  effect on (−)-epinephrine stimulated cAMP response: blocked
